From paper PMC10507807, “De novo design of a stapled peptide targeting SARS-CoV-2 spike protein receptor-binding domain” (RSC Medicinal Chemistry, 2023)
Starred links: 1 amine or outer side, 2 acyl side, 3 side chain; linkers in the order of their positions; H or OH if unused. Positions of bridges follow the written chain, without caps; N, C: chain ends. Non-standard residues stand in square brackets, D forms with d. Residues, ends and D or L forms follow the SMILES beside them. X1 = C[C@@](CC=[*:3])(N[*:1])C(=O)[*:2]

Assays:
[1] = test system: SARS-CoV-2 spike protein RBD; type: binding
[2] = test system: Vero E6 cells; conditions: MTT, 0.05–50 μM pep39, 48 h

CSCC[C@@H]1NC(=O)[C@H](CC(N)=O)NC(=O)[C@@H]2CC(=O)NCCCC[C@H](NC(=O)[C@H](Cc3c[nH]c4ccccc34)NC(=O)[C@@H](NC(=O)[C@H](CCCCN)NC(=O)[C@H](Cc3ccc(O)cc3)NC(=O)[C@H](CC(C)C)NC(=O)[C@H](Cc3c[nH]c4ccccc34)NC(=O)[C@H](CCC(=O)O)NC(=O)[C@@H](NC(=O)CNC(C)=O)[C@@H](C)O)C(C)C)C(=O)N[C@@H](C)C(=O)N[C@@H](Cc3ccccc3)C(=O)N[C@@](C)(C/C=C/C[C@@](C)(C(=O)O)NC1=O)C(=O)N2 [pep39] (Ac-GTEWLYKVWKAF[X1]DNM[X1]-OH; lactam 10-14; staple (E) 13-17) was tested, and the “confirmation of binding to spike protein RBD” value [1] was “able to confirm the binding of pep39 on the surface of the spike protein RBD”, the maximum micro-cantilever deflection ([1]; pH 7.4) was 33.27 nm and the minimum micro-cantilever deflection ([1]; pH 7.4) was 8.46 nm. The “concentration at which significant inhibition of cell growth was observed” value ([2]; P < 0.05 vs PBS) was at least 50 µM and the “concentration above which cell growth is dose dependently inhibited” value ([2]; vs PBS) was “higher than 0.5 μM”.
